Results reported in PubChem BioAssay AID248 (DTP/NCI, 2004).
Toxic doses and inconclusive results are not listed. No stated cut-off is given here; in the data, active means T/C of 150% or more; inactive means T/C below 125%.

System: L1210 leukemia ip in BDF1 mice, survival T/C
Assay: NCI In Vivo Anticancer Drug Screen. Data for tumor model L1210 Leukemia (intraperitoneal) in B6D2F1 (BDF1) mice
Conditions: endpoint: mean survival time, higher = longer survival
Summary of the method: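 Tumor was transplanted into mice, which were then dosed with test compound or vehicle alone. Survival was recorded for each group, and the treated figure was expressed relative to the control figure.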

[1] = dose: 100.0 mg/kg/injection, schedule: Q04DX003 (ip), vehicle: saline with Tween-80
[2] = dose: 200.0 mg/kg/injection, schedule: Q04DX003 (ip), vehicle: saline with Tween-80
[3] = dose: 100.0 mg/kg/injection, schedule: Q01DX001 (ip), vehicle: carboxymethylcellulose (CMC)
[4] = dose: 200.0 mg/kg/injection, schedule: Q01DX001 (ip), vehicle: carboxymethylcellulose (CMC)
[5] = dose: 400.0 mg/kg/injection, schedule: Q01DX001 (ip), vehicle: carboxymethylcellulose (CMC)

Measured: T/C

CCC(=S)Nc1ccc(Cl)cc1
inactive: dose: 25.0 mg/kg/injection, schedule: Q01DX009 (ip), vehicle: saline with Tween-80 103 % of control | dose: 50.0 mg/kg/injection, schedule: Q01DX009 (ip), vehicle: saline with Tween-80 105 % of control | dose: 100.0 mg/kg/injection, schedule: Q01DX009 (ip), vehicle: saline with Tween-80 112 % of control | [1] 91 % of control | [2] 110 % of control

Cc1cc2c(c(O)c1CN1CCOCC1)C1=C(CCCC1)C(C)(C)O2
inactive: [3] 107 % of control | [4] 91 % of control | [5] 86 % of control

NC(=O)COc1ccc(Cl)c2ccccc12
inactive: dose: 100.0 mg/kg/injection, schedule: Q01DX001 (ip), vehicle: Klucel (hydroxypropylcellulose) (HPC) 96 % of control | dose: 100.0 mg/kg/injection, schedule: Q04DX002 (ip), vehicle: Klucel (hydroxypropylcellulose) (HPC) 86 % of control | dose: 200.0 mg/kg/injection, schedule: Q01DX001 (ip), vehicle: Klucel (hydroxypropylcellulose) (HPC) 102 % of control | dose: 200.0 mg/kg/injection, schedule: Q04DX002 (ip), vehicle: Klucel (hydroxypropylcellulose) (HPC) 99 % of control | dose: 400.0 mg/kg/injection, schedule: Q01DX001 (ip), vehicle: Klucel (hydroxypropylcellulose) (HPC) 86 % of control | dose: 400.0 mg/kg/injection, schedule: Q04DX002 (ip), vehicle: Klucel (hydroxypropylcellulose) (HPC) 99 % of control

Cc1cc(C(=O)NNC(C)Cc2ccccc2)no1 (configuration not stated)
inactive: dose: 4.6 mg/kg/injection, schedule: Q01DX009 (ip), vehicle: Klucel (hydroxypropylcellulose) (HPC) 94 % of control | dose: 9.3 mg/kg/injection, schedule: Q01DX009 (ip), vehicle: Klucel (hydroxypropylcellulose) (HPC) 94 % of control | dose: 18.75 mg/kg/injection, schedule: Q01DX009 (ip), vehicle: Klucel (hydroxypropylcellulose) (HPC) 97 % of control | dose: 37.5 mg/kg/injection, schedule: Q01DX009 (ip), vehicle: Klucel (hydroxypropylcellulose) (HPC) 97 % of control

Cc1ccc(N=Cc2ccccc2O)cc1.[Co]
inactive: dose: 100.0 mg/kg/injection, schedule: Q01DX001 (ip), vehicle: other 102 % of control | dose: 200.0 mg/kg/injection, schedule: Q01DX001 (ip), vehicle: other 98 % of control | dose: 400.0 mg/kg/injection, schedule: Q01DX001 (ip), vehicle: other 110 % of control

Nc1nc(SCc2ccccc2)c2nnn(C3OC(CO)C(O)C3O)c2n1 (configuration not stated)
inactive: dose: 100.0 mg/kg/injection, schedule: Q01DX001 (ip), vehicle: saline with Tween-80 101 % of control | dose: 200.0 mg/kg/injection, schedule: Q01DX001 (ip), vehicle: saline with Tween-80 96 % of control | dose: 400.0 mg/kg/injection, schedule: Q01DX001 (ip), vehicle: saline with Tween-80 111 % of control

COc1nc(-c2ccccc2)cn[n+]1C
inactive: dose: 33.0 mg/kg/injection, schedule: Q01DX001 (ip), vehicle: saline with Tween-80 103 % of control | dose: 50.0 mg/kg/injection, schedule: Q01DX001 (ip), vehicle: saline with Tween-80 107 % of control | dose: 75.0 mg/kg/injection, schedule: Q01DX001 (ip), vehicle: saline with Tween-80 113 % of control

OC(COC(c1ccccc1)(c1ccccc1)c1ccccc1)C(O)CC1SCCS1 (configuration not stated)
inactive: dose: 50.0 mg/kg/injection, schedule: Q01DX001 (ip), vehicle: carboxymethylcellulose (CMC) 105 % of control | [3] 105 % of control | [4] 94 % of control | [5] 100 % of control

O=C(Nc1ccc(Cl)cc1)Oc1ccc(Cl)cc1Cc1ccccc1
inactive: dose: 100.0 mg/kg/injection, schedule: Q04DX002 (ip), vehicle: saline with Tween-80 93 % of control | dose: 200.0 mg/kg/injection, schedule: Q04DX002 (ip), vehicle: saline with Tween-80 118 % of control | dose: 400.0 mg/kg/injection, schedule: Q04DX002 (ip), vehicle: saline with Tween-80 89 % of control

CC(C)c1ccc(OS(=O)(=O)c2cccc([N+](=O)[O-])c2)cc1
inactive: [1] 100 % of control | [2] 100 % of control | dose: 400.0 mg/kg/injection, schedule: Q04DX003 (ip), vehicle: saline with Tween-80 98 % of control
